Measured values from patent publication US10450314B2, “Pteridine derivatives as modulators of ROR gamma” (Boehringer Ingelheim International GmbH, priority 2015, dated 2019).

Assays:
RORγ = target: T1, RORγ (Homo sapiens, UniProt P51449); experiment: RORγ Reporter Gene Assay (RGA), luciferase transactivation in transiently transfected HEK 293 cells; format: cell-based; conditions: HEK 293 cells cotransfected with pGL4.3 luc2P/GAL4UAS and pBIND Gal4DBD hRORC LBD; 20-24 h incubation
T1 construct: expressed in transfected cells; host or cells: HEK 293 cells, transiently cotransfected with pGL4.3 luc2P/GAL4UAS/Hygro reporter
T1 sequence (P51449 269-508 limits assumed): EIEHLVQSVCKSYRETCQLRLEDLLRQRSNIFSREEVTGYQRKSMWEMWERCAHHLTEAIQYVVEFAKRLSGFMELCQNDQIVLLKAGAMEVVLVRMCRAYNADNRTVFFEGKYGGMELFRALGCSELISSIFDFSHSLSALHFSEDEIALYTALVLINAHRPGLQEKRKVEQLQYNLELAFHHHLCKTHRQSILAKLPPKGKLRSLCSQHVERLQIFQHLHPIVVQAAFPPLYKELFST
Method: Reporter Gene Assay (RGA)
A nuclear receptor transactivation assay is performed to quantitate the ability of test compounds to inhibit RORγ transactivation of a luciferase reporter. A similar assay is described in: Khan et al., Bioorganic & Medicinal Chemistry Letters 23 (2013), 532-536. The system uses transiently transfected HEK 293 cells cotransfected with two plasmids (pGL4.3, luc2P/GAL4UAS/Hygro, and pBIND, Gal4DBD hRORC LBD1-3). The positive control is co-transiently transfected with both plasmids, and the negative control contains the pGL4.3 promoter sequence. Assays are assembled in 384 well plates where transiently transfected cells and test compound at varying concentrations are incubated for 20-24 h. The next day, assays plates are taken out and equilibrated at RT for 20-30 minutes. Bright-Glo™ Luciferase Assay System is used to detect Luciferase production. After addition of Bright GLO detection reagent, the plates are incubated at RT for 20 minutes. The plates are read on an Envision plate reader to measure luminescence signal. The RLU signal is converted to POC relative to control and blank wells.
Compound Dilution Buffer:
Bright Glo Luciferase Assay System: Promega #E2620
Thaw lysis buffer provided in kit, add 100 mL lysis buffer to substrate powder.

[1] = Human liver microsome (HLM) metabolic stability assay; format: in vitro ADME; conditions: human liver microsomes, 1 uM compound, 37° C., 60 min; % hepatic blood flow
Method: Assessment of Metabolic Stability
The 5 time point, high-throughput human liver microsome (HLM) metabolic stability assay is designed to determine in vitro compound metabolism. Compounds are incubated with HLMs at a concentration of 1 uM, at 37° C., for a total of 60 min. The percent of compound remaining at 5, 15, 30, and 60 min is used to calculate the t1/2 (min), CLint (mL/min/kg), CLh (mL/min/kg), and % Qh. The assay is based on a 96-well format and can accommodate up to 92 compounds per plate (n=1).
Using the 96-well multi-channel head, the Biomek FX, equipped with a Peltier heating block/shaker, is programmed to accomplish the following steps: • 1. Pipette 175 uL of 1.15 mg/mL microsomes into each of the 96 conical inserts (Analytical Sales and Products, catalog number 96PL05) that fit into the plate of the Peltier heating block/shaker (the incubation plate) • 2. Add 5 uL of compounds from the assay plate to the microsomes and shake the mixture at 600 rpm at 42.1° C. for 10 min (a setting of 42.1° C. on the Peltier is required for the samples to incubate at 37° C.) • 3. After 10 min, prompt the user to add the NADPH plate to the deck and add 20 uL from the NADPH plate to the incubation plate to start the reaction • 4. Add 215 uL of 100%, cold acetonitrile containing an internal standard(s) to a 0 minute, 5 minute, 15 minute, 30 minute, and 60 minute “quench” plate • 5. At 0 min, 5 min, 15 min, 30 min, and 60 min into the incubation, aspirate 12 uL from the incubation mixture and add it to the quench solution to stop the reaction • 6. Add 185 uL HPLC grade water to each well of the 0, 5, 15, 30 and 60 minute quench plates to dilute compounds to the appropriate concentration for the mass spectrometer
After all time points are collected, the quench plates are sealed with 96-well pierceable plate mats or heat sealing foil and centrifuged at 3000 rpm for 15 min to pellet the microsomes.
The plates are analyzed using LC/MS/MS with electron spray ionization (ESI) and the previously determined MRM transitions. The LC method includes the following parameters:
Using an Excel template in Activitybase, the peak areas corresponding to 5, 15, 30 and 60 min are compared to the peak area at 0 min to calculate the percent of remaining compound using the following equation:
Percent compound remaining=(AUC at Time t min/AUC at Time 0 min)×100 where t=0, 5, 15, 30 or 60 min.
Time (min) is plotted against the natural logarithm (Ln) of the percent compound remaining to determine the slope. The slope is used to calculate t1/2 (min) using the equation, t1/2=0.693/slope.
Clint, Intrinsic Clearance

Compound	IC50 (RORγ)	HLM (% Qh) [1]
CC[C@@H](C)n1c(=O)c(NCc2ccc(S(C)(=O)=O)cn2)nc2c(COC(C)=O)nc(-c3c(C)ncnc3C3CC3)nc21 [Example 47]	1050 nM	56 % Qh
CC[C@@H](C)n1c(=O)c(NCc2ncc(S(C)(=O)=O)cn2)nc2c(C)nc(-c3c(OC)ncnc3C3CC3)nc21 [Example 56]	1100 nM	<24 % Qh
Cc1ncnc(C2CC2)c1-c1nc(C)c2nc(NCc3ccc(S(N)(=O)=O)cn3)c(=O)n([C@@H](C)C3CC3)c2n1 [Example 61]	185 nM	<24 % Qh
CC[C@@H](C)n1c(=O)c(NCc2cnc(S(C)(=O)=O)cn2)nc2c(C)nc(-c3c(C)ncnc3C3CC3)nc21 [Example 55]	265 nM	<24 % Qh
CCS(=N)(=O)c1ccc(CNc2nc3c(C)nc(-c4c(C)ncnc4C4CC4)nc3n([C@@H](C)C3CC3)c2=O)cc1 (single isomer, unassigned) [Example 36a]	260 nM	<24 % Qh
CCS(=O)(=O)c1cnc(CNc2nc3c(C)nc(-c4c(OC)ncnc4C4CC4)nc3n([C@@H](C)C(F)(F)F)c2=O)nc1 [Example 22]	140 nM	<24 % Qh
Cc1ncnc(C2CC2)c1-c1nc(C)c2nc(NCc3ccc(S(C)(=O)=O)nc3)c(=O)n([C@@H](C)C3CC3)c2n1 [Example 7]	70 nM	33 % Qh
CC[C@H](C)n1c(=O)c(NCc2ccc(S(C)(=O)=O)cn2)nc2c(C)nc(-c3c(C)ncnc3C3CC3)nc21 [Example 14]	115 nM	<24 % Qh
Cc1ncnc(C2CC2)c1-c1nc(C)c2nc(NCc3ccc(S(C)(=N)=O)cn3)c(=O)n([C@@H](C)C3CC3)c2n1 (single isomer, unassigned) [Example 43b]	400 nM	<24 % Qh
CC[C@H](C)n1c(=O)c(NCc2ccc(S(N)(=O)=O)cn2)nc2c(C)nc(-c3c(C)ncnc3C3CC3)nc21 [Example 85]	270 nM	<24 % Qh
CC[C@@H](C)n1c(=O)c(NCc2ccc(S(=N)(=O)CC)cc2)nc2c(C)nc(-c3c(OC)ncnc3C3CC3)nc21 (single isomer, unassigned) [Example 29a]	235 nM	73 % Qh
Cc1ncnc(C2CC2)c1-c1nc(C)c2nc(NCc3ccc(S(C)(=O)=O)cn3)c(=O)n([C@@H](C)CF)c2n1 [Example 49]	4200 nM	<24 % Qh
Cc1ncnc(C2CC2)c1-c1nc(C)c2nc(NCc3ccc(S(C)(=O)=O)cn3)c(=O)n([C@@H](C#N)C(C)C)c2n1 [Example 31]	850 nM	55 % Qh
CC[C@@H](C)n1c(=O)c(NCc2ccc(S(=O)(=O)CC)cn2)nc2c(C)nc(-c3c(C)ncnc3C3CC3)nc21 [Example 65]	135 nM	<24 % Qh
CCS(=N)(=O)c1ccc(CNc2nc3c(C)nc(-c4c(OC)ncnc4C4CC4)nc3n([C@@H](C)C(F)(F)F)c2=O)nc1 (single isomer, unassigned) [Example 101b]	315 nM	<24 % Qh
CC[C@@H](C)n1c(=O)c(NCc2ncc(S(=O)(=O)CC)cn2)nc2c(C)nc(-c3c(OC)ncnc3C3CC3)nc21 [Example 4]	180 nM	<24 % Qh

Compound	IC50 (RORγ)	HLM (% Qh) [1]
CCS(=O)(=O)c1cnc(CNc2nc3c(C)nc(-c4c(C)ncnc4C4CC4)nc3n([C@@H](C)C(F)F)c2=O)nc1 [Example 94]	205 nM	<24 % Qh
CCS(=N)(=O)c1ccc(CNc2nc3c(C)nc(-c4c(C)ncnc4C4CC4)nc3n([C@@H](C)C3CC3)c2=O)nc1 (single isomer, unassigned) [Example 42b]	390 nM	<24 % Qh
CC[C@H](C)n1c(=O)c(NCc2ccc(S(=O)(=O)CC)nc2)nc2c(C)nc(-c3c(OC)ncnc3C3CC3)nc21 [Example 63]	100 nM	<24 % Qh
CCS(=O)(=O)c1cnc(CNc2nc3c(C)nc(-c4c(C)ncnc4C4CC4)nc3n([C@@H](C)C(F)(F)F)c2=O)nc1 [Example 23]	178 nM	<24 % Qh
Cc1ncnc(C2CC2)c1-c1nc(C)c2nc(NCc3ccc(S(C)(=O)=O)nc3)c(=O)n([C@@H](C)C(F)(F)F)c2n1 [Example 20]	175 nM	29 % Qh
CC[C@H](C)n1c(=O)c(NCc2ccc(S(=O)(=O)CC)cn2)nc2c(C)nc(-c3c(OC)ncnc3C3CC3)nc21 [Example 58]	71 nM	<24 % Qh
CC[C@@H](C)n1c(=O)c(NCc2ccc(S(=N)(=O)CC)cc2)nc2c(C)nc(-c3c(C)ncnc3C3CC3)nc21 (single isomer, unassigned) [Example 26b]	170 nM	25 % Qh
Cc1ncnc(C2CC2)c1-c1nc(C)c2nc(NCc3ccc(S(C)(=O)=O)cn3)c(=O)n(C(C)C(F)F)c2n1 (stereo not shown) [Example 90]	235 nM	<24 % Qh
CC[C@@H](C)n1c(=O)c(NCc2ccc(S(C)(=O)=O)cn2)nc2c(C)nc(-c3c(C)ncnc3C3CC3)nc21 [Example 73]	155 nM	<24 % Qh
Cc1ncnc(C2CC2)c1-c1nc(C)c2nc(NCc3ccc(S(C)(=O)=O)cn3)c(=O)n([C@@H](C)C3CC3)c2n1 [Example 9]	70 nM	<24 % Qh
CCS(=O)(=O)c1cnc(CNc2nc3c(C)nc(-c4c(OC)ncnc4C4CC4)nc3n([C@@H](C)C3CC3)c2=O)nc1 [Example 10]	97 nM	27 % Qh
Cc1ncnc(C2CC2)c1-c1nc(C)c2nc(NCc3ccc(S(C)(=N)=O)cn3)c(=O)n([C@@H](C)C3CC3)c2n1 (single isomer, unassigned) [Example 43a]	730 nM	<24 % Qh
CC[C@@H](C)n1c(=O)c(NCc2ccc(S(=O)(=O)CC)cn2)nc2c(COC(C)=O)nc(-c3c(C)ncnc3C3CC3)nc21 [Example 46]	1050 nM	66 % Qh
CC[C@@H](C)n1c(=O)c(NCc2ccc(S(=O)(=O)CC)cn2)nc2c(CF)nc(-c3c(C)ncnc3C3CC3)nc21 [Example 53]	160 nM	33 % Qh
COc1ncnc(C2CC2)c1-c1nc(C)c2nc(NCc3ccc(S(C)(=N)=O)cn3)c(=O)n([C@@H](C)C(F)(F)F)c2n1 (single isomer, unassigned) [Example 105a]	890 nM	<24 % Qh
CCS(=O)(=O)c1ccc(CNc2nc3c(C)nc(-c4c(C)ncnc4C4CC4)nc3n([C@@H](C)C3CC3)c2=O)cn1 [Example 74]	77 nM	<24 % Qh
